Where two headings read alike, the source gives them in different places.
Experiments:
Parameters in all cases: species or system Hepatitis C virus
HCV replicon 1B = assay: Cell-based HCV replicon assay (Replicon Assay B), replicon 1B; details: replicon RNA by real-time PCR, 3 days
Method: In an alternate assay (“Replicon Assay B”), 1000 cells were seeded per well in a 384-well collagen coated black plate from Greiner bio-one (Cat #781946) in 5% FBS. Inhibitors of this invention were added at 24 h post-seeding, and the plates were incubated for 3 days. Cells were subsequently lysed with Qiagen lysis buffer (Cat #1062731) to extract the RNA. HCV replicon RNA level was measured by real-time PCR using the RNA-to-CT kit from Applied Biosystem (Cat #4392656) and genotype-specific primers and probes. The amplicon was located within NS5B. […] (SEQ. ID NO. 2); the probe sequence was FAM-labeled […] (SEQ. ID NO. 3).
(§1) The real-time RT-PCR reactions were run on ABI PRISM 7900HT or Viia7 Sequence Detection System using the following program: 48° C. for 30 minutes, 95° C. for 10 minutes, 40 cycles of 95° C. for 15 sec, 60° C. for 1 minutes.
EC50 data for replicons 1A, 1AY93H and 2B were obtained using Replicon Assay A and EC50 data for replicon 1B was obtained using Replicon Assay B.

HCV replicon 1A = assay: Cell-based HCV replicon assay (Replicon Assay A), replicon 1A; details: replicon RNA by real time PCR, day 3
Method: (§2) To measure cell-based anti-HCV activity of compounds of the present invention, two complimentary assays were employed using various replicons. In the first assay (“Replicon Assay A”), replicon cells were seeded at 2000 cells/well in 384-well 384-well flat bottom tissue culture treated clear bottom plate (Corning 3707) in the presence of the test compound. Various concentrations of test compound, typically in 10 serial dilutions, were added to the assay mixture, with the starting concentration ranging from 333.3 nM to 1.667 nM. The final concentration of DMSO was 0.5%. Fetal bovine serum was 5%, in the assay media. Cells were harvested on day 3 by removing media and washing the cells with a suitable wash buffer. The cells were lysed with the addition of 1× Qiagen lysis buffer (Cat #1062731). The replicon RNA level was measured using real time PCR (TaqMan® EZ RT-PCR, Applied Biosystems 403028) with the following primers and probes: […]
(§3) Cyclophilin RNA was used as endogenous control and was amplified in the same reaction as NS5B (multiplex PCR). The real-time RT-PCR reactions were run on ABI PRISM 7900HT Sequence Detection System using the following program: 50° C. for 2 minutes, 60° C. for 30 minutes, 95° C. for 5 minutes, 40 cycles of 94° C. for 20 sec, 55° C. for 1 minutes.
(§4) The amount of HCV replicon RNA per cell was quantified using a linear regression curve for a known nanogram (ng) amount of HCV replicon total RNA. This was established by plotting the Cycle Threshold values (Ct) from the Neo probe and primer set versus the log (ng) for each HCV replicon total RNA standard. The amount of HCV RNA for each replicon sample was calculated by taking the sample's Ct value, minus the line intercept, divided by the slope of the line. Similarly, the amount of Cyclophilin mRNA per cell was also quantified using a linear regression curve for a known nanogram (ng) amount of HCV replicon total RNA. Again, this was established by plotting the Cycle Threshold values (Ct) from the Cyclophilin probe and primer set versus the log (ng) for each HCV replicon total RNA standard.
as §1, with “minutes. The 50% effective concentration (EC50) was the drug concentration necessary to achieve an increase in the cycle threshold (CT) of 1 over the projected baseline CT.” for “minutes.”
(§5) Data was obtained for various compounds of the present invention using the methods described in the Example above, and is presented in the table immediately below. EC50 data for replicons 1A, 1AY93H and 2B were obtained using Replicon Assay A and EC50 data for replicon 1B was obtained using Replicon Assay B.

HCV replicon 1A Y93H = assay: Cell-based HCV replicon assay (Replicon Assay A), replicon 1AY93H; details: replicon RNA by real time PCR, day 3
Method: as §2, §3, §4
as §1, with “minutes. The 50% effective concentration (EC50) was the drug concentration necessary to achieve an increase in the cycle threshold (CT) of 1 over the projected baseline CT.” for “minutes.”
as §5

HCV replicon 2B = assay: Cell-based HCV replicon assay (Replicon Assay A), replicon 2B; details: replicon RNA by real time PCR, day 3
Method: as §2, §3, §4
as §1, with “minutes. The 50% effective concentration (EC50) was the drug concentration necessary to achieve an increase in the cycle threshold (CT) of 1 over the projected baseline CT.” for “minutes.”
as §5

[1] = read-out: EC50 replicon 1A Y93H, Replicon Assay A
[2] = read-out: EC50 replicon 2B, Replicon Assay A

Structure (SMILES) | EC50 (HCV replicon 1B; Hepatitis C virus, 72 h) [pM] | EC50 (HCV replicon 1A) [pM] | EC50 (HCV replicon 1A Y93H; [1]) [pM] | EC50 (HCV replicon 2B; [2]) [pM] | EC50 (HCV replicon 1B) [pM] | EC50 (HCV replicon 1A; Hepatitis C virus, 72 h) [pM] | EC50 (HCV replicon 2B; Hepatitis C virus, 72 h, read-out: EC50 replicon 2B, Replicon Assay A) [pM] | EC50 (HCV replicon 1A Y93H; Hepatitis C virus, 72 h, read-out: EC50 replicon 1A Y93H, Replicon Assay A) [pM]
COC(=O)N[C@H](C(=O)N1CCC[C@H]1c1ncc(-c2cc(F)c3c(c2)OC(c2ccc4c(c2)OCCC4C)n2c-3cc3cc(-c4cnc([C@@H]5CCCN5C(=O)[C@@H](NC(=O)OC)C(C)C)[nH]4)ccc32)[nH]1)C(C)C (single isomer, unassigned) [Compound 8] | 1.1 | 2.1 | 38 | 41 | – | – | – | –
COC(=O)N[C@H](C(=O)N1CCC[C@H]1c1ncc(-c2cc(F)c3c(c2)OC(c2ccc4c(c2)OCCC4C)n2c-3cc3cc(-c4cnc([C@@H]5CCCN5C(=O)[C@@H](NC(=O)OC)C(C)C)[nH]4)ccc32)[nH]1)C(C)C (single isomer, unassigned) [Compound 10] | – | 2.4 | 39 | 41 | 1.2 | – | – | –
COC(=O)N[C@H](C(=O)N1CCC[C@H]1c1ncc(-c2cc(F)c3c(c2)OC(c2ccc4c(c2)OC(C)CC4)n2c-3cc3cc(-c4cnc([C@@H]5CCCN5C(=O)[C@@H](NC(=O)OC)C(C)C)[nH]4)ccc32)[nH]1)C(C)C (single isomer, unassigned) [Compound 13] | 3.2 | 2.3 | 106 | 144 | – | – | – | –
COC(=O)N[C@H](C(=O)N1CCC[C@H]1c1ncc(-c2cc(F)c3c(c2)OC(c2ccc4c(c2)OC(C)CC4)n2c-3cc3cc(-c4cnc([C@@H]5CCCN5C(=O)[C@@H](NC(=O)OC)C(C)C)[nH]4)ccc32)[nH]1)C(C)C (single isomer, unassigned) [Compound 14] | – | 1.8 | 119 | 163 | 2.6 | – | – | –
COC(=O)N[C@H](C(=O)N1CCC[C@H]1c1ncc(-c2cc(F)c3c(c2)OC(c2ccc4c(c2)OCCC4(F)F)n2c-3cc3cc(-c4cnc([C@@H]5CCCN5C(=O)[C@@H](NC(=O)OC)C(C)C)[nH]4)ccc32)[nH]1)C(C)C (single isomer, unassigned) [Compound 20] | 1.4 | 1.3 | 67 | 40 | – | – | – | –
COC(=O)N[C@H](C(=O)N1CCC[C@H]1c1ncc(-c2cc(F)c3c(c2)OC(c2ccc4c(c2)OC(C)(C)C4)n2c-3cc3cc(-c4cnc([C@@H]5CCCN5C(=O)[C@@H](NC(=O)OC)C(C)C)[nH]4)ccc32)[nH]1)C(C)C (single isomer, unassigned) [Compound 28] | 2.1 | 1.7 | 32 | 105 | – | – | – | –
COC(=O)N[C@H](C(=O)N1CCC[C@H]1c1ncc(-c2cc(F)c3c(c2)OC(c2ccc4c(c2)OCCC4)n2c-3cc3cc(-c4cnc([C@@H]5CCCN5C(=O)[C@@H](NC(=O)OC)C5CCOCC5)[nH]4)ccc32)[nH]1)C(C)C (single isomer, unassigned) [Compound 31] | 2.2 | – | 322 | 98 | – | 1.5 | – | –
COC(=O)N[C@H](C(=O)N1CCC[C@H]1c1ncc(-c2cc(F)c3c(c2)OC(c2ccc4c(c2)OCCC4)n2c-3cc3cc(-c4cnc([C@@H]5CCCN5C(=O)[C@@H](NC(=O)OC)C5CCOCC5)[nH]4)ccc32)[nH]1)C(C)C (single isomer, unassigned) [Compound 32] | – | 2.6 | 10 | 3 | 2.6 | – | – | –
COC(=O)N[C@H](C(=O)N1CCC[C@H]1c1ncc(-c2ccc3c(c2)cc2n3C(c3ccc4c(c3)OCCC4)Oc3cc(-c4cnc([C@@H]5CCCN5C(=O)[C@@H](NC(=O)OC)C5CCOCC5)[nH]4)cc(F)c3-2)[nH]1)C(C)C (single isomer, unassigned) [Compound 33] | 2.1 | – | 598 | 114 | – | 1.8 | – | –
COC(=O)N[C@H](C(=O)N1CCC[C@H]1c1ncc(-c2ccc3c(c2)cc2n3C(c3ccc4c(c3)OCCC4)Oc3cc(-c4cnc([C@@H]5CCCN5C(=O)[C@@H](NC(=O)OC)C5CCOCC5)[nH]4)cc(F)c3-2)[nH]1)C(C)C (single isomer, unassigned) [Compound 34] | – | 2.1 | 8 | 5 | 3 | – | – | –
COC(=O)N[C@H](C(=O)N1CCC[C@H]1c1ncc(-c2cc(F)c3c(c2)OC(c2ccc4c(c2)CCCO4)n2c-3cc3cc(-c4cnc([C@@H]5CCCN5C(=O)[C@@H](NC(=O)OC)C5CCOCC5)[nH]4)ccc32)[nH]1)C(C)C (single isomer, unassigned) [Compound 35] | 1.2 | – | 61 | – | – | 3.4 | 258 | –
CCO[C@H](C)[C@H](NC(=O)OC)C(=O)N1CCC[C@H]1c1ncc(-c2cc(F)c3c(c2)OC(c2ccc4c(c2)OCCC4)n2c-3cc3cc(-c4cnc([C@@H]5CCCN5C(=O)[C@@H](NC(=O)OC)C(C)C)[nH]4)ccc32)[nH]1 (single isomer, unassigned) [Compound 39] | 1.4 | – | 3380 | 910 | – | 1.7 | – | –
CCO[C@H](C)[C@H](NC(=O)OC)C(=O)N1CCC[C@H]1c1ncc(-c2cc(F)c3c(c2)OC(c2ccc4c(c2)OCCC4)n2c-3cc3cc(-c4cnc([C@@H]5CCCN5C(=O)[C@@H](NC(=O)OC)C(C)C)[nH]4)ccc32)[nH]1 (single isomer, unassigned) [Compound 40] | – | 2.1 | 107 | 86 | 2.2 | – | – | –
COC(=O)NC(C(=O)N1CCC[C@H]1c1ncc(-c2ccc3c(c2)cc2n3C(c3ccc4c(c3)OCCC4)Oc3cc(-c4cnc([C@@H]5CCCN5C(=O)[C@@H](NC(=O)OC)C(C)C)[nH]4)cc(F)c3-2)[nH]1)C(C)(C)F (single isomer, unassigned) [Compound 43] | 2.3 | – | – | 81 | – | 2.2 | – | 75
COC(=O)N[C@H](C(=O)N1CCC[C@H]1c1ncc(-c2cc(F)c3c(c2)OC(c2ccc4c(c2)OCC4)n2c-3cc3cc(-c4cnc([C@@H]5C[C@H]6C[C@H]6N5C(=O)[C@@H](NC(=O)OC)C(C)C)[nH]4)ccc32)[nH]1)C(C)C (single isomer, unassigned) [Compound 48] | 1.5 | – | 33 | 382 | – | 1.9 | – | –
COC(=O)NC(C(=O)N1CCC[C@H]1c1ncc(-c2ccc3c(c2)cc2n3C(c3ccc4c(c3)CCCO4)Oc3cc(-c4cnc([C@@H]5CCCN5C(=O)[C@@H](NC(=O)OC)C(C)C)[nH]4)cc(C)c3-2)[nH]1)C1C[C@@H](C)O[C@@H](C)C1 (single isomer, unassigned) [Compound 84] | – | 2 | 674 | 193 | – | – | – | –
COC(=O)NC(C(=O)N1CCC[C@H]1c1ncc(-c2ccc3c(c2)cc2n3C(c3ccc4c(c3)OCCC4)Oc3cc(-c4cnc([C@@H]5CCCN5C(=O)[C@@H](NC(=O)OC)C(C)C)[nH]4)cc(C)c3-2)[nH]1)C1C[C@@H](C)O[C@@H](C)C1 (single isomer, unassigned) [Compound 85] | – | – | 575 | 70 | – | 2.7 | – | –
COC(=O)N[C@H](C(=O)N1CCC[C@H]1c1ncc(-c2cc(F)c3c(c2)OC(c2ccc4c(c2)OCCC4)n2c-3c(F)c3cc(-c4cnc([C@@H]5CCCN5C(=O)[C@@H](NC(=O)OC)C5CCOCC5)[nH]4)ccc32)[nH]1)C(C)C (single isomer, unassigned) [Compound 91] | – | – | 893 | 123 | – | 1.1 | – | –

Reference: patent US10738062B2, “Chromane-substituted tetracyclic compounds and uses thereof for the treatment of viral diseases” (Merck Sharp & Dohme Corp., priority 2016, dated 2020)
